From patent US20080242669A1, “METHODS RELATING TO THE TREATMENT OF FIBROTIC DISORDERS” (UNIVERSITY OF WASHINGTON, priority 2005, published 2008)

Tests used:
[1] = system: TCF/β-Catenin driven β-Galactosidase expression; test: TCF/β-catenin driven β-galactosidase reporter in lungs of bleomycin-treated Bat-Gal transgenic mice (X-Gal staining); format: in vivo, mouse; settings: intratracheal bleomycin, 5 mg/Kg/day via minipump (subcutaneously)
Method: Using this murine model of pulmonary fibrosis in transgenic Bat-Gal mice, ICG-001 (5 mg/Kg/day, administered via minipump) blocked >95% of bleomycin-induced TCF/O-catenin transcription.
These mice have a Beta-Galactosidase transgene driven by a TCF/Catenin driven promoter (i.e. a read out for activated Wnt/catenin signaling). The mice were given intratracheal saline or bleomycin and either treated with ICG-001 (5 mgs/Kg/day subcutaneously) or saline as vehicle control. The mice were sacrificed and the lungs sectioned and stained with X-Gal (blue color) A) intratracheal bleo+saline. B) intracheal bleo+ICG-001 C) saline+saline.
The dose was selected because ICG-001 reduces TCF/β-Catenin driven β-Galactosidase expression >95% at 5 mgs/Kg/day.

E-Cadherin = test: Western blot for E-Cadherin on whole cell lysates of IPF patient fibroblasts; format: cell-based, human; settings: RPMI1640+10% FBS, 2 days
Method: (§1) Western blots for S100A4 (also know as FSP-1 or fibroblast specific protein-1) and E-Cadherin were performed on whole cell lysates (FIG. 20).

[2] = system: bleomycin induced fibrosis; test: Bleomycin induced murine pulmonary fibrosis model (lung sections stained for collagen, body weight, survival); format: in vivo, mouse
Method: Murine models of bleomycin induced fibrosis have been developed in order to study fibrotic disease progression.
There is an absence of airway epithelium in lower left compared to upper left (see arrow heads) and extensive collagen deposition (lower left). On the sixth day, either saline (upper right) or ICG-001 (5 mgs/Kg/day) was administered for 10 days after which the mice were sacrificed and sectioned. Of interest is the upper right (saline treatment) showing lack of normal airway epithelialization, extensive collagen deposition and intra-airway hypercellularity (fibroblasts and inflammatory influx).
FIGS. 16 and 17 show RT-PCR data for S100A4 (FIG. 16) and collagen1A2 (FIG. 17), which are increased in the bleomycin treated mice (treated with saline control).
The procedures were performed using the animal model as described in Example 2 (FIG. 15), and the sectioned lungs were stained for collagen.

Aquaporin 5 = Aquaporin 5 immunostaining of lung tissue in bleomycin mouse model; format: in vivo; settings: bleomycin and ICG-001 vs bleomycin alone
Method: The aquaporins are water channels expressed in a variety of cell types. Aquaporin 5 is involved in the transportation of water across the apical surface of the alveolar epithelium and the epithelia of the submucosal glands in the upper airway and nasopharynx. (Krane, C. M., P.N.A.S. 98:14192-4, 2001; Yang, F. J. Biol. Chem. 278:32173-80, 2003). Because aquaporin 5 is a marker of Type 1 (differentiated) lung epithelium, its expression was assayed in lung tissue treated with bleomycin (FIG. 22A), bleomycin and ICG-001 (FIG. 22B), and saline (FIG. 22C), using the animal model as described in Example 2 (FIG. 15), and immunostaining with an antibody specific for Aquaporin 5.

S100A4 (FSP-1) = test: Western blot for S100A4 on whole cell lysates of IPF patient fibroblasts; format: cell-based, human; settings: IPF patient fibroblasts / ATCC IPF cells, RPMI1640+10% FBS, 2 days
Method: as §1

[3] = C57/B16 mice, bleomycin 5 days, then 5 mgs/Kg/day for 10 days
[4] = bleomycin and ICG-001 vs bleomycin
[5] = bleomycin model, 5 mg/Kg/day via minipump

With `O=C1[C@H](Cc2ccc(O)cc2)N2C(=O)CCN(C(=O)NCc3ccccc3)[C@H]2CN1Cc1cccc2ccccc12` [ICG-001] the “block of bleomycin-induced TCF/β-catenin transcription (β-Galactosidase expression)” value [1] was over 95%, the “E-cadherin expression (Western blot; also mRNA level)” value (E-Cadherin) was “increased” and the “airway appearance in trichrome stained lung sections” value [2, 3] was “essential normal”. The body weight [2, 3] was “regained normal body weight”, the “collagen levels in trichrome stained lung sections” value [2, 3] was “normal collagen levels” and the survival ([2]; C57/B16 mice, bleomycin 5 days, then 5 mgs/Kg/day for 10 days, untreated controls did not survive) was “survived”. For the same compound, the “alveolar fibrosis (lungs stained for collagen)” value [2, 4] was “prevented”, the “interstitial fibrosis (lungs stained for collagen)” value [2, 4] was “prevented” and the “disease progression, as judged by mortality, histopathology and endogenous gene expression” value [2, 5] was “not only halted but reversed”. The mortality [2, 5] was “reduced”, the “fibrosis over the 25 days of treatment” value ([2]; bleomycin model, 25 days of treatment) was “reversed fibrosis” and the “aquaporin 5 expression in lung tissue (immunostaining)” value (Aquaporin 5) was “greatly increased”. For the same compound, the “S100A4 expression (Western blot)” value (S100A4 (FSP-1)) was “decreased”.
